Experimental findings from ChEMBL document CHEMBL1201862, “PubChem BioAssay data set” (2004) are described below.

In assay [1] the target is Melanin-concentrating hormone receptor 1 (Homo sapiens, UniProt Q99705). As to the kind of experiment: Late-stage fluorescence-based counterscreen for antagonists of the G-protein coupled receptor 7 (GPR7): cell-based dose response assay to identify antagonists of the melanin-concentrating hormone receptor 1 (MCHR1) Set 5. The format is functional. In general terms: The purpose of a counterscreen is to sort out artefacts and off-target activity.
Chain of Melanin-concentrating hormone receptor 1 (Q99705 whole entry): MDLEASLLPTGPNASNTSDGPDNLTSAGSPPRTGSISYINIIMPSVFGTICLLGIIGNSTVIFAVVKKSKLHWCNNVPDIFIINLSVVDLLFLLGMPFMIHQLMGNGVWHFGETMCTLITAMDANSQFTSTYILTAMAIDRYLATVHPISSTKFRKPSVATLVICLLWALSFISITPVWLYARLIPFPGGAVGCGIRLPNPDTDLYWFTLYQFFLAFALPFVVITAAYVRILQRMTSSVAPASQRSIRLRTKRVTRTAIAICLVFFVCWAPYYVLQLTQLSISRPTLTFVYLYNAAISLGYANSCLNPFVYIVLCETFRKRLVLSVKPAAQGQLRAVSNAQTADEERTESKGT

Assay [2] addresses Neuropeptides B/W receptor type 1 (Homo sapiens, UniProt P48145). Put plainly: GPR7 antagonist potency, late-stage follow-up, cell-based, fluorescence, dose response, set 5 (AID 588566). In kind it is functional.

Activity calls are given as the source filed them. Cut-off read from the data, not from the text of the source: active = IC50 of 10 µM or less and inactive = more.

Chain of Neuropeptides B/W receptor type 1 (P48145 whole entry): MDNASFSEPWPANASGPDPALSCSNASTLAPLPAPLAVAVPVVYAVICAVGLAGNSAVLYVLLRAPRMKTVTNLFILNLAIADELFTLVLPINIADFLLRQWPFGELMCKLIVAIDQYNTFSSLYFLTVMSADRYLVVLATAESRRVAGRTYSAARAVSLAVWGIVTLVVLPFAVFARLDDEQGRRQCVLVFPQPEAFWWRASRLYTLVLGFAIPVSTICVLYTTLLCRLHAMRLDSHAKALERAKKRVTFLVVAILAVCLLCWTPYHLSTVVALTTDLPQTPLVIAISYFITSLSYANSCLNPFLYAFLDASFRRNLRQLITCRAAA

As a reminder, the IC50 is the concentration that inhibits the measured activity by half. Take `COc1ccc(Oc2c(F)cnn(-c3cccc(C)c3)c2=O)cc1`: the values for the IC50 in assay [1] and in assay [2] were 7.64 µM (active) and 4.04 µM (active), respectively.
